The text below walks through data of PMC8761492 (Life Science Alliance, 2022).

In brackets after ≈: the same amount, converted by molar mass. Several values for one entry are separate records, joined by “and”; a condition that tells them apart may be missing. Equal values may be shown once. Starred links: 1 amine or outer side, 2 acyl side, 3 side chain; linkers in the order of their positions; H or OH if unused. Positions of bridges follow the written chain, without caps; N, C: chain ends. Non-standard residues stand in square brackets, D forms with d. Residues, ends and D or L forms follow the SMILES beside them. *: point of attachment. X1 = CC[C@H](C)[C@@H](N[*:1])[C@@H](O)CC(=O)O[C@H](C(=O)[C@H](C)C(=O)[*:2])C(C)C; NMeY = CN[C@@H](Cc1ccc(O)cc1)C(=O)O; dNMeL = CN[C@H](CC(C)C)C(=O)O; Pyruvoyl = CC(=O)C(=O)*

Series [1] concerns SARS-CoV-2. More on the design: method as in PMID 33495306. The following applies: SARS-CoV-2 in vitro; cited from earlier work.
Series [2] can be described thus: Protocol estimate of target concentrations from the HCoV-229E experiment. Particulars: bovine, cell culture medium with 10% bovine serum.
Series [3] relates to HCoV-229E. The series is described as above. The following applies: from IC50 0.555 µg/l assuming a Hill slope of 1.
A short description of series [4]: Tissue distribution of total radioactivity after single IV bolus of [14C]plitidepsin. The series is classed as in vivo, Sprague–Dawley rats. Particulars: rat, 0.2 mg/kg i.v. bolus. How it is done: An in vivo distribution study was carried out in rats. PM140064 (14C1-Plitidepsin) was supplied by PharmaMar at a radiochemical purity of 95% or greater, with no single impurity 3% or greater. The study was conducted at Aptuit Srl ([54]).
24 male and 24 female Sprague–Dawley rats each received a single IV bolus administration of [14C] Plitidepsin at a target dose of 0.2 mg/kg. After administration, three animals per time-point (0.25, 1, 2, 4, 8, 24, 48, and 72 h post-dose) were exsanguinated from the abdominal aorta and blood retained. Actual times of bleeding were recorded. In addition to blood, the following tissues were collected: brain, eyeballs, heart, liver, lung, skeletal muscle (quadriceps), fat, kidneys, stomach, skin, small intestine, spleen, thyroid, lymph nodes, and testes or ovaries. At the end of the collection period animals were euthanized by CO2 asphyxiation and the carcasses were discarded. Additional animals were bled to obtain control blood/plasma and tissues.

Series [5] has as its system SARS-CoV-2. More on the design: method as in PMID 33495306. The following applies: in vivo; cited from earlier work.
Series [6] deals with CYP3A4. More on the design: method as in study protocol. The following applies: in vitro studies; ref study protocol; cited from earlier work.
The test system of series [7] is HCoV-229E-GFP virus. Kind of series: microbe, parasite or virus in culture. Particulars: Huh-7 cells. In kind it is cell-based, human coronavirus 229E.
Series [8] relates to SARS-CoV-2 B.1.1.7. Description: microbe, parasite or virus in culture. In kind it is cell-based. Particulars: 24 h, mean ± SEM.
The test system of series [9] is SARS-CoV. In kind it is cell-based. Particulars: Vero E6 cells; 50 nM; 48 hpi.
Series [10] can be described thus: Drug-induced cytotoxicity in Vero E6 cells in the absence of virus. Particulars: monkey, Vero E6 cells (ATCC CRL-1586), uninfected, Vero E6 cells without virus. In kind it is cell-based.

Usually IC90 stands for the concentration needed for an effect of 90%. The fraction unbound is free concentration divided by total concentration. By IC50 is commonly meant the concentration needed to halve the response being measured. Broadly, the CC50 is the concentration that lowers cell viability or growth by half. Read a high CC50 as better tolerance by the cells. Regarding `CC[C@H](C)[C@H]1NC(=O)[C@@H](NC(=O)[C@@H](CC(C)C)N(C)C(=O)[C@@H]2CCCN2C(=O)C(C)=O)[C@@H](C)OC(=O)[C@H](Cc2ccc(OC)cc2)N(C)C(=O)[C@@H]2CCCN2C(=O)[C@H](CC(C)C)NC(=O)[C@@H](C)C(=O)[C@H](C(C)C)OC(=O)C[C@@H]1O` [Plitidepsin] (Pyruvoyl-P[dNMeL]T[X1]LP[NMeY](Me); ester 3-C), the IC90 in series [1] is 0.88 nM. Also, the fraction unbound in series [2] is > 0.96. The IC90 estimated in series [3] was 4.995 ng/mL (≈ 4.5 nM). Moreover, the “lung-blood (LBR) AUC ratio” value in series [4] is “around 8 fold”. For the same molecule, in series [5], the “viral load in lungs” value was “significant reduction in the viral load in lungs”. For the same molecule, in [6], the “major enzyme involved in plitidepsin metabolism” value is listed as “CYP3A4”. Further, the “concentration of plitidepsin with antiviral effect on HCoV-229E-GFP” value in series [7] (as low as, equals 0.5 nM) is ≤ 0.555 µg/L. The IC50 in series [7] (Human coronavirus 229E, study protocol, read-out: IC50 assumed from the HCoV-229E-GFP experiment) was 0.5 nM and 0.000555 µg/mL; in series [8] (Severe acute respiratory syndrome coronavirus 2, Caco-2, pretreated 2 h), 6.12 nM; in [8] (Severe acute respiratory syndrome coronavirus 2, Calu-3, pretreated 2 h), 5.87 nM. In addition, the “decrease in SARS-CoV genomic RNA accumulation” value in [9] is reported as 10^4 fold. Besides, in [10], it took 2900 nM to reach half-maximal cytotoxicity (CC50 at 3 d).
